The values below come from patent US11324803B2, “Methods and compositions for treatment of Gaucher Disease via modulation of C5a receptor” (Children's Hospital Medical Center, priority 2015, dated 2022).

One data set concerns the target T1, GCase (Mus musculus, UniProt P17439).
T1 construct: endogenous in cells; host or cells: WT, C5aR1-/-, C5aR2-/-, Fcer1g-/- and Fcgr2b-/- mice, in vivo
T1 sequence (P17439 20-515): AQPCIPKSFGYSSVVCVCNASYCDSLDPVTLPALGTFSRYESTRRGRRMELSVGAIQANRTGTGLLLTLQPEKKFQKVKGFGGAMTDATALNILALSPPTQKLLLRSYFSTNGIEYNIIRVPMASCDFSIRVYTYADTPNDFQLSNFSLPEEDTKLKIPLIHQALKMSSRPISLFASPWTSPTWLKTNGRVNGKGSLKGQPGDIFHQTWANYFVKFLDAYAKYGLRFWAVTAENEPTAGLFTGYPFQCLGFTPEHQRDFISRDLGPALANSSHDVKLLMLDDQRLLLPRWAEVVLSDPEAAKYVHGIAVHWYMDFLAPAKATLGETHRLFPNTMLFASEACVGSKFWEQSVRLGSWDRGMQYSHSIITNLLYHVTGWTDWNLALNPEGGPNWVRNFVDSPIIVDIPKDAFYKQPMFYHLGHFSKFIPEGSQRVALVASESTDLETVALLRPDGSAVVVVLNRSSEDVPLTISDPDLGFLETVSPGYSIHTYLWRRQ
Kind of data set: CBE-induced GCase deficiency (pharmacologically-induced Gaucher disease) in mice. It counts as in vivo. From the text: Sera from human patients with Gaucher disease (n=10) and healthy volunteers (n=15) were from the freezer and de-identified. Human patients with Gaucher disease were diagnosed at Cincinnati Children's Hospital Medical Center (CCHMC). […] The study was approved by the ethics committee at CCHMC. In vivo C5aR1 deficiency or blockade in 9V/null mice and in a CBE-induced mouse model of Gaucher disease. To assess the impact of genetic or pharmacological targeting of C5aR1 on the inflammatory response in Gaucher disease, WT (n=10) and C5aR1^−/− mice (n=10) were treated with conduritol B epoxide (CBE), which is an irreversible inhibitor of acid β-glucosidase^24. More specifically, both mouse strains were injected intraperitoneally (i.p.) with 100 mg CBE/kg body weight or vehicle (PBS)/day for up to 60 days, which was the termination point of these experiments. After 60 days of the indicated treatment with CBE, immune cells (MΦs, DCs, and T cells) were purified from lung of these mouse strains and used for measurement of GC, costimulatory molecules, and several of the pro-inflammatory cytokines. In additional experiments, WT (n=15) or 9V/null mice (n=15) were injected with 100 μl of the C5aR antagonist A8^Δ71-73 (i.p. 0.5 mg/kg) or vehicle (100 μl, PBS) on five consecutive days. Five days after the final C5aRA treatment, liver, spleen and lung were separated and measured for GC accumulation. Further, DCs and CD4^+ T cells were purified from the lung of the indicated mouse strains and measured for costimulatory molecule expression and the production of pro-inflammatory cytokines. Preparation of tissue cells. Liver, spleen, lung and BM were harvested aseptically. Single cell suspensions from liver and lung were obtained from minced pieces that were treated with Liberase Cl (0.5 mg/mL) and DNase (0.5 mg/mL) in RPMI (45 min, 37° C.). Single cell suspensions from spleen were obtained by grinding and then filtration through a 70-micron cell strainer. […] For BM cells, femurs, tibias and humeri were flushed with sterile phosphate buffered saline (PBS), followed by RBC lysis (155 mM NH4Cl, 10 mM NaHCO3, 0.1 mM EDTA), passage through a strainer. Cells were then pelleted by centrifugation at 350×g. Viable cells were counted using a Neubauer chamber and trypan blue exclusion. DCs, MΦs, and CD4^+ T lymphocytes were purified from single cell suspensions of liver, spleen, and lung using CD11c, CD11b, and CD4 (L3T4) microbeads according to the manufacturer's protocol. The purity of the cells was ˜90%-95%.
To determine levels of IgG antibodies to GC or GS in mice and human Gaucher patients, 10 μg of GC or GS were dissolved in 1 ml of methanol and water to a final concentration of 10 μg/ml. One hundred microliters of this GC solution (1 μg/well) were used to coat a 96 well ELISA plate. In case of GS, plates were first filled with 300 µl of poly L lysine solution (0.1 mg/ml). After 10 minutes, excess solution was removed and plates were thoroughly rinsed with sterile water and allowed to dry for several hours. Such plates were then coated with 100 μl of indicated GS solution (1 μg/well). Both of these GC and GS coated plates were kept overnight at room temperature followed by three washings with PBS containing 1% Tween-20 (PBST). Test sera (100 μl; 1:100) isolated from WT (n=15) and 9V/null mice (n=15), CBE-treated (n=10) and untreated WT mice (n=10), as well as healthy humans (n=15) and untreated Gaucher disease patients (n=10), and control antibodies to GC were loaded into the lipid-coated wells followed by incubation for 1.5 hours at RT. […]

The next data set addresses T2, C5a receptor 1 (Rattus norvegicus, UniProt P97520).
T2 construct: host or cells: rats, in vivo
T2 sequence (P97520 1-352): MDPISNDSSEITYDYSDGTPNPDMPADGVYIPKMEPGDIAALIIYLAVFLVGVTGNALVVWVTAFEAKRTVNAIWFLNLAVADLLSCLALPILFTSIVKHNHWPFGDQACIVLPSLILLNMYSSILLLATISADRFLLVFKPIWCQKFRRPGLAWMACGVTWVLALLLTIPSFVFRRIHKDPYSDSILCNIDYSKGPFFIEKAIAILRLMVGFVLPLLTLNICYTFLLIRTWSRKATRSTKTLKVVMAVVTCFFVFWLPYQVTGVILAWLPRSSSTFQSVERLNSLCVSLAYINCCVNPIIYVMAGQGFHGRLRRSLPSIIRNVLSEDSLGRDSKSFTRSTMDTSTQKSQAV
The conditions noted are these: introduced orally; cited from earlier work.

The subject of data set [1] is DCs and CD4+ T cells. Kind of data set: DC / CD4+ T cell co-culture with C5a: cytokine production by ELISA. It is filed as cell-based, mouse. The conditions noted are these: cells from 9V/null mice vs WT, C5a 32 nM, 48 h co-culture. The method, then: (§1) To assess the GC-induced C5a influence on alteration in costimulatory molecules, DCs and CD4^+ T cells purified from lung of 9V/null and background matched WT mice (n=15, each group) were stimulated ex vivo in the presence and absence of different concentration of C5a (0,8,16, and 32 nM) for 24 hours at 37° C. DCs and CD4^+ T cells were purified liver, spleen, and lung of CBE-induced chemical model of Gaucher disease in C5aR1^−/− (n=10) and background-matched WT mice (n=10). These DCs were used to perform FACS staining with antibodies to CD40, CD80, and CD86, whereas CD4^+T cells were used to perform FACS staining with antibodies to CD40L and CD69. To assess the GC induced C5a impact on cytokines and chemokines production, DCs and CD4^+T cells (1:2.5 ratio) purified from lung of 9V/null (n=15) and background-matched WT mice (n=15) were co cultured in the presence and absence of C5a (32 nM) for 48 hours in complete medium. In additional experiments, indicated ratios ([…]) of DCs and CD4^+T cells purified from lung of CBE treated and untreated WT and C5aR1^−/− mice (n=10/each group) were co-cultured for 48 hrs in complete medium. Supernatant of these experiments were used to measure […], TNF-α, IL-1β, IL-6, IL-12p40, IL-12p70, IL-23, IL-17A/F and IL-23 by ELISA. […]
Background: An ELISA detects its analyte on a solid surface through an enzyme-linked reagent.

Data set [2] relates to DCs and CD4+ T cells. Kind of data set: C5a stimulation of DCs and CD4+ T cells: co-stimulatory molecule expression. It counts as cell-based, mouse. The conditions noted are these: WT and 9V/null cells, C5a 0, 8, 16, 32 nM, 24 h. The method, then: as §1
Setting [3] is: WT mice treated for 30 days with CBE vs PBS.

In the case of `O[C@H]1[C@H](O)[C@@H](O)[C@@H]2O[C@@H]2[C@@H]1O` (racemic) [CBE, conduritol B epoxide], the “survival after daily injections of CBE for 60 days” value at GCase (C5aR1−/− mice, 100 mg CBE/kg/day i.p.) is listed as “survived”. Moreover, the “time of death under daily CBE injections” value on GCase (C5aR2−/− mice, 100 mg CBE/kg/day i.p.) was in the range of 29 to 35 days; at GCase (Fcer1g−/− mice, 100 mg CBE/kg/day i.p.) it was 29 to 36 days; on GCase (Fcgr2b−/− mice, 100 mg CBE/kg/day i.p.), 29 to 36 days; at GCase (WT mice, 100 mg CBE/kg/day i.p.) it was 29 to 35 days. Also, the “serum levels of C5a” value on GCase (setting [3]) is “elevated”. Besides, the “serum levels of IgG2a and IgG2b antibodies to GC” value on GCase (setting [3]) is on record as “significantly elevated”.

Regarding AcF-[OP(D-Cha)WR], on C5a receptor 1, the “effect in rat models of acute inflammation” value (“effect in rat models” below) was “beneficial”.

On to HC-[OP(D-Cha)WR], for which the “effect in rat models” value at C5a receptor 1 is “beneficial”.

Turning to PMX53, the “effect in rat models” value at C5a receptor 1 was “beneficial”.

B1: C5a: small peptide of the complement anaphylatoxin family, cleaved from C5 (protein, UniProt P01031 678-751, looked up)
C5a anaphylatoxin: TLQKKIEEIAAKYKHSVVKKCCYDGACVNNDETCEQRAARISLGPRCIKAFTECCVVASQLRANISHKDMQLGR
modifications: C5a anaphylatoxin
notes: small peptide of the complement anaphylatoxin family, cleaved from C5
As to B1, in the data set on DCs and CD4+ T cells [1], the “production of IFN-γ, TNF-α, IL-1β, IL-6, and IL-17” value was “dramatically increased”. In addition, the “expression levels of CD40, CD80, CD86 and CD40L and CD69” value in the data set with DCs and CD4+ T cells [2] is listed as “increased”.
